Values of other authors in patent US20080248136A1, “ACUTE AND CHRONIC HEARTBURN COMPOSITION AND METHOD” (IOMEDIX DEVELOPMENT INTERNATIONAL SRL, priority 2006, published 2008).
Values belong to the compound of their own block, whether it stands above or below them.

Columns and labels:
[1] = in vivo
[2] = mice
[3] = tested on: mitogen-activated protein kinase signaling; conditions: signaling stimulated by H. Pylori

SMILES: [Mg+2].[OH-].[OH-] [magnesium hydroxide]
- esophageal pH [1]: significantly increased
- gastric pH versus placebo [1]: increased gastric pH above placebo levels

SMILES: O=C([O-])[O-].[Ca+2] [calcium carbonate]
- esophageal pH [1]: significantly increased
- gastric pH versus placebo [1]: remained at or below placebo levels

SMILES: C=C(C)[C@H]1CC=C(C)CC1 [limonene]
- participants achieving complete relief of symptoms (after 2 days of administration): 20%
- severity of gastric and esophageal reflux disorder symptoms, as evaluated by subjects (daily or every other day administration, after 14 days): near complete relief of the symptoms
- lasting alleviation of symptoms of gastric and esophageal reflux disorders (in certain cases): alleviated permanently
- antinociceptive activity [2]: has antinociceptive activity

- effect on mitogen-activated protein kinase signaling [3]: inhibits
SMILES: C=C(C)[C@@H]1CC=C(C(=O)O)CC1 [perillic acid]
